We go through 94 molecules from patent US7199147B2, “Rho kinase inhibitors” (Dainippon Sumitomo Pharma Co., Ltd., priority 2001, dated 2007).

The structures appear in SMILES notation. Counter-ions that a name gives are not always drawn.

As to `O=C(O)C(F)(F)F.c1cc2[nH]ncc2cc1NC1CCOCC1`, the melting point (commonly the temperature of the solid-liquid transition) is 242 to 245 °C (dec.). The figure for `O=C(NC1CCN(Cc2ccccc2)C1)c1ccc2[nH]ncc2c1` (stereo not shown) is 187 to 189 °C; for `O=C(NC1CCCN(Cc2ccccc2)C1)c1ccc2[nH]ncc2c1` (stereo not shown) it is 203 to 204 °C; for `O=C(NC1CCCNC1)c1ccc2[nH]ncc2c1` (stereo not shown) it is 265 to 266 °C.

As to `CCOC(=O)N1C2CCC1CC(Nc1ccc3[nH]ncc3c1)C2` (stereo not shown), the melting point lay within 158 to 159 °C. In the case of `CN1CCCC(NC(=O)c2ccc3[nH]ncc3c2)C1` (stereo not shown) it was 228 to 229 °C. With `CC(=O)N1CCC(Nc2ccc3[nH]ncc3c2)CC1`, the melting point is 193 to 195 °C (dec.). In the case of `CS(=O)(=O)N1CCC(Nc2ccc3[nH]ncc3c2)CC1` it was 219 to 220 °C (dec.); in that of `CCS(=O)(=O)N1CCC(Nc2ccc3[nH]ncc3c2)CC1`, 182 to 183 °C. The figure for `O=S(=O)(c1ccccc1)N1CCC(Nc2ccc3[nH]ncc3c2)CC1` is 132 to 136 °C; for `CN(CCC(=O)Nc1ccc2[nH]ncc2c1)Cc1ccccc1` it is 140 to 141 °C. The figure for `CN(C)CCC(=O)Nc1ccc2[nH]ncc2c1` is 152 to 153 °C. On to `O=C(CCN1CCCCC1)Nc1ccc2[nH]ncc2c1`, for which the melting point lay within 178 to 179 °C. In the case of `CC(C)CCC(=O)Nc1ccc2[nH]ncc2c1` it was 215 to 216 °C (dec.); in that of `COCCC(=O)Nc1ccc2[nH]ncc2c1`, 173 to 174 °C.

With `O=C(CCC(F)(F)F)Nc1ccc2[nH]ncc2c1`, the melting point was 243 to 244 °C (dec.). The figure for `CC(C)N1CCC(Nc2ccc3[nH]ncc3c2)CC1` is 140 to 141 °C; for `O=C(CCOCc1ccccc1)Nc1ccc2[nH]ncc2c1` it is 167 to 169 °C; for `CN(CCCNc1ccc2[nH]ncc2c1)Cc1ccccc1` it is 112 to 114 °C.

Take `O=S(=O)(Nc1ccc2[nH]ncc2c1)C1CCNCC1`: the melting point fell in the range of 120 to 123 °C. On to `c1cc(OC2CCNCC2)c2cn[nH]c2c1`, for which the melting point lay within 162 to 165 °C. In the case of `CC(C)CCCOc1ccc2[nH]ncc2c1` it was 124 to 126 °C. In the case of `CC(C)COc1ccc2[nH]ncc2c1` it was 151 to 153 °C. The figure for `O=C(O)CCC(=O)Nc1ccc2[nH]ncc2c1` is 218 to 220 °C (dec.); for `N#Cc1cccc(COc2ccc3[nH]ncc3c2)c1` it is 158 to 161 °C. In turn, `CN(CC(=O)Nc1ccc2[nH]ncc2c1)Cc1ccccc1` returned a melting point of 159 to 160 °C. The figure for `c1cc2[nH]ncc2cc1OC1CCCCC1` is 144 to 146 °C. The figure for `c1cc2[nH]ncc2cc1OC1CCCC1` is 141 to 142 °C; for `NCc1ccc(COc2ccc3[nH]ncc3c2)cc1` it is 197 to 198 °C. In the case of `NCc1cccc(COc2ccc3[nH]ncc3c2)c1` it was 179 to 183 °C; in that of `CC(C)N1CCC(Oc2ccc3[nH]ncc3c2)CC1`, 125 to 126 °C. Consider `O=C(CN1CCCCC1)Nc1ccc2[nH]ncc2c1`, for which the melting point was in the range of 189 to 190 °C.

The molecule `OC1CCC(Oc2ccc3[nH]ncc3c2)C1` (stereo not shown) yielded a melting point of 147 to 148 °C. The figure for `c1cc2[nH]ncc2cc1OC1CCCNCC1` (stereo not shown) is 159 to 160 °C; for `CN(CCCC(=O)Nc1ccc2[nH]ncc2c1)Cc1ccccc1` it is 115 to 117 °C. In the case of `O=C1c2ccccc2C(=O)N1[C@H]1CC[C@@H](Oc2ccc3[nH]ncc3c2)CC1` it was 194 to 196 °C; in that of `N[C@H]1CC[C@@H](Oc2ccc3[nH]ncc3c2)CC1`, 144 to 146 °C. The figure for `CNc1ccc2[nH]ncc2c1` is 144 to 146 °C. Consider `CN(c1ccc2[nH]ncc2c1)C1CCN(Cc2ccccc2)CC1`, for which the melting point fell in the range of 152 to 154 °C. With `COc1ccc2[nH]ncc2c1C`, the melting point was in the range of 148 to 149 °C.

`Cc1c(OC2=CC=CNC=C2)ccc2[nH]ncc12`: the melting point is 157 to 159 °C. The figure for `Cc1c(O[C@H]2CC[C@H](N)CC2)ccc2[nH]ncc12` is 150 to 152 °C; for `CN(c1ccc2[nH]ncc2c1)C1CCNCC1` it is 175 to 177 °C. The figure for `CCN[C@H]1CC[C@H](Oc2ccc3[nH]ncc3c2C)CC1` is 150 to 151 °C; for `Cc1c(OC2CCCNC2)ccc2[nH]ncc12` (stereo not shown) it is 183 to 185 °C. The figure for `Cc1c(OC2CCN(C(C)C)CC2)ccc2[nH]ncc12` is 134 to 136 °C; for `Cc1c(OC2CCN(C3CCCC3)CC2)ccc2[nH]ncc12` it is 140 to 143 °C.

In the case of `c1cc2[nH]ncc2cc1OC1CCCN(C2CCCC2)CC1` (stereo not shown), the melting point lay in the range of 138 to 140 °C. On to `Cc1c(OC2CCCN(C3CCCC3)CC2)ccc2[nH]ncc12` (stereo not shown), for which the melting point was 126 to 131 °C. `Cc1c(O[C@H]2CC[C@@H](NC(C)C)CC2)ccc2[nH]ncc12` came in with a melting point of 166 to 168 °C. In the case of `Cc1c(O[C@H]2CC[C@@H](NC3CCCC3)CC2)ccc2[nH]ncc12` it was 153 to 155 °C; in that of `CC(=O)N1CCC(Oc2ccc3[nH]ncc3c2C)CC1`, 161 to 163 °C.

Take `O=C(c1ccc2[nH]ncc2c1)N1CCNCC1`: the melting point lay in the range of 190 to 191 °C. In turn, `c1ccc(CN2CCN(Cc3ccc4[nH]ncc4c3)CC2)cc1` had a melting point of 147 to 149 °C. In the case of `CS(=O)(=O)N1CCC(C(=O)Nc2ccc3[nH]ncc3c2)CC1` it was 291 to 293 °C (dec.); in that of `O=C(Nc1ccc2[nH]ncc2c1)C1CCOCC1`, 286 to 288 °C (dec.). The figure for `c1cc2[nH]ncc2cc1NC1CC2CCC(C1)N2` (stereo not shown) is 236 to 238 °C; for `c1cc2[nH]ncc2cc1NCC1CCOCC1` it is 293 to 294 °C (dec.). The figure for `O=C(NC1CCOCC1)c1ccc2[nH]ncc2c1` is 285 to 286 °C. The molecule `Cl.Cl.c1cc2[nH]ncc2cc1NC1CN2CCC1CC2` (stereo not shown) gave a melting point of 184 to 188 °C. In the case of `Cl.Cl.OCCN1C2CCC1CC(Nc1ccc3[nH]ncc3c1)C2` (stereo not shown) it was 154 to 157 °C; in that of `CCCN1C2CCC1CC(Nc1ccc3[nH]ncc3c1)C2.Cl.Cl` (stereo not shown), 198 to 203 °C; in that of `COc1ccc2ccccc2c1CNc1ccc2[nH]ncc2c1`, 183 to 185 °C. As to `O=C(CC1CCN(Cc2ccccc2)CC1)Nc1ccc2[nH]ncc2c1`, the melting point was in the range of 195 to 197 °C.

`CSc1c(O)ccc2[nH]ncc12` displayed a melting point of 126 to 128 °C.

Molecule `O=C(C=C1CCN(Cc2ccccc2)CC1)Nc1ccc2[nH]ncc2c1` had a melting point of 169 to 172 °C.

On to `CSc1c(O[C@H]2CC[C@@H](N3C(=O)c4ccccc4C3=O)CC2)ccc2[nH]ncc12`, for which the melting point is 211 to 212 °C. In the case of `CCC(=O)N[C@H]1CC[C@@H](Oc2ccc3[nH]ncc3c2SC)CC1` it was 155 to 156 °C; in that of `CSc1c(O[C@H]2CC[C@@H](NC(=O)c3ccccc3)CC2)ccc2[nH]ncc12`, 146 to 148 °C. In the case of `c1ccc(CN2CCC(CCNc3ccc4[nH]ncc4c3)CC2)cc1` it was 117 to 118 °C; in that of `c1cc2[nH]ncc2cc1NCCC1CCNCC1`, 184 to 186 °C (dec.); in that of `c1ccc(CN2CCN(c3ccc4[nH]ncc4c3)CC2)cc1`, 196 to 198 °C (dec.). In the case of `CN(C)C(=O)c1ccccc1Nc1ccc2[nH]ncc2c1` it was 234 to 235 °C (dec.); in that of `Cl.Cl.c1ccc(CN2CCC(Nc3cccc4[nH]ncc34)CC2)cc1`, 257 to 260 °C (dec.).

On to `Cl.Cl.c1cc(NC2CCNCC2)c2cn[nH]c2c1`, for which the melting point is 270 to 271 °C. For the molecule `c1cc2cn[nH]c2cc1NC1CCNCC1`, the melting point was 196 to 197 °C (dec.). The figure for `Cn1ncc2cc(NC3CCN(Cc4ccccc4)CC3)ccc21` is 116 to 117 °C; for `Cn1ncc2cc(NC3CCNCC3)ccc21` it is 111 to 113 °C; for `Cn1cc2cc(NC3CCN(Cc4ccccc4)CC3)ccc2n1` it is 108 to 110 °C.

Consider `Cn1cc2cc(NC3CCNCC3)ccc2n1`, for which the melting point was in the range of 144 to 147 °C. In the case of `Cc1n[nH]c2ccc(NC3CCN(Cc4ccccc4)CC3)cc12` it was 160 to 162 °C. `Cc1n[nH]c2ccc(NC3CCNCC3)cc12` showed a melting point of 175 to 177 °C. The figure for `c1ccc(CN2CCC(Nc3ccc4oncc4c3)CC2)cc1` is 89 to 90 °C; for `COc1c(OS(C)(=O)=O)ccc2[nH]ncc12` (as salt: methanesulfonate) it is 130 to 131 °C; for `N[C@H]1CCC[C@@H](Oc2cccc3[nH]ncc23)C1` (relative stereo) it is 166 to 168 °C.

The molecule `O=C1c2ccccc2C(=O)N1[C@H]1CCC[C@H](Oc2ccc3[nH]ncc3c2)C1` (relative stereo) displayed a melting point of 197 to 198 °C. In the case of `N[C@H]1CCC[C@H](Oc2ccc3[nH]ncc3c2)C1` (relative stereo) it was 179 to 180 °C; in that of `CN(C)[C@H]1CCC[C@H](Oc2ccc3[nH]ncc3c2)C1` (relative stereo), 134 to 135 °C; in that of `CCN[C@H]1CCC[C@H](Oc2ccc3[nH]ncc3c2)C1` (relative stereo), 116 to 118 °C. In the case of `Cc1c(O[C@H]2CCC[C@H](N)C2)ccc2[nH]ncc12` (relative stereo) it was 156 to 160 °C. In the case of `CCCCC(=O)N[C@H]1CCC[C@@H](Oc2ccc3[nH]ncc3c2C)C1` (relative stereo) it was 190 to 193 °C. On to `Cc1c(O[C@@H]2CCC[C@H](NC(=O)C3CCCC3)C2)ccc2[nH]ncc12` (relative stereo), for which the melting point was 242 to 244 °C (dec.). The figure for `Cc1c(O[C@@H]2CCC[C@H](NCC3CCCC3)C2)ccc2[nH]ncc12` (relative stereo) is 140 to 142 °C; for `COc1ccc(CN[C@H]2CCC[C@@H](Oc3ccc4[nH]ncc4c3C)C2)cc1` (relative stereo) it is 164 to 166 °C.
